Source: patent US11911408B2, “Synergistic formulations of adenosine receptor modulating agents and anticholinergics” (UNIVERSITY OF ALASKA FAIRBANKS, priority 2021, dated 2024)
Entries after “also recorded” stand apart in the source; their conditions may differ.

How the values were obtained:
Sprague-Dawley rats [1] = test: 8-SPT dose determination (IV): atropine and 8-SPT bolus before CHA loading dose and infusion, 4° C. cooled surface; type: in vivo, rat; settings: Atropine 1 mg/kg and SPT 10, 15 or 25 mg/kg (all doses) 15 min before CHA 1 mg/kg bolus, 0.25 mg/(kg·h) IV; n=5
Procedure: To define the dose-response relationship between 8-SPT combined with a constant concentration of atropine and CHA, three drug treatment combinations with varying doses of 8-SPT were tested. […] One hour of baseline data (body temperature, blood pressure, heart rate, and metabolism) were acquired before treatment. Rats received IV bolus of Atropine and 8-SPT 15 minutes before CHA. An IV loading dose of CHA was administered followed by a two hour continuous infusion of CHA. Rats were placed on a 4° C. cooled surface (previously described Laughlin et al). Surface temperature was manually adjusted to prevent body temperature from falling below 32° C.
Rats were placed inside a 12″×12″ clear acrylic box without bedding sitting on top of a custom built, aluminum hydronic surface. The aluminum surface was part of a cooling and heating system controlled by a thermostat in which circulating water was heated or cooled via thermoelectric Peltier plates and pumped through the aluminum cage floor. […] Food and water was provided ad libitum.

Sprague-Dawley rats [2] = test: Minimizing hemodynamic effects: antagonist pretreatments before IP CHA/CPA, rats on 4° C. cooled surface
Procedure: Fifteen different treatment combinations were administered to five male Sprague-Dawley rats with an average age of 314±88 days and weight of 453±44 g (mean±SD) in a modified cross over design as shown in Table 1). […] A washout period of at least one week was allowed between treatments. One hour of baseline data (body temperature, blood pressure, heart rate, and metabolism) was acquired before treatment. Rats received either a single IP injection of CHA or were pre-treated with antagonists 15 or 30 minutes prior to CHA drugs and were then placed on a 4° C. cooled surface (previously described Laughlin et al; herein incorporated by reference). Surface temperature was manually adjusted to prevent body temperature from falling below 32° C.
The pressure transducer was cannulated into the descending abdominal aorta.
Rats were placed inside a 12″×12″ clear acrylic box without bedding sitting on top of a custom built, aluminum hydronic surface. The aluminum surface was part of a cooling and heating system controlled by a thermostat in which circulating water was heated or cooled via thermoelectric Peltier plates and pumped through the aluminum cage floor. […] Food and water was provided ad libitum. The vascular access button was attached to a tether and swivel (Instech, VAHD115T, 375/D/22, Plymouth Meeting, Pa.) connected to a counter balance arm to provide freedom of movement.

[3] = 8-SPT 25 mg/kg 15 min before CHA (S15C), n=4-5
[4] = 8-SPT 25 mg/kg administered 30 min after CHA 1 mg/kg, n=4-5

Cn1c(=O)c2[nH]c(-c3ccc(S(=O)(=O)O)cc3)nc2n(C)c1=O [8-SPT, 8-(p-sulfophenyl) theophylline]
CHA induced hypotension (Sprague-Dawley rats [1]): effectively blocked
effect on heart rate compared to CHA 1 mg/kg alone (Sprague-Dawley rats [2]; [3]): minimal effect
effect on mean arterial pressure compared to CHA 1 mg/kg alone (Sprague-Dawley rats [2]; [3]): minimal effect
core body temperature (Sprague-Dawley rats [2]; [4]): increased significantly
heart rate (Sprague-Dawley rats [2]; [4]): increased significantly
mean arterial pressure (Sprague-Dawley rats [2]; [4]): increased significantly
oxygen consumption (Sprague-Dawley rats [2]; [4]): increased significantly
prevention of CHA induced hypotension (Sprague-Dawley rats [2]; 8-SPT 25 mg/kg alone 15 min before CHA 1 mg/kg (S15C), n=3-5): not sufficient
prevention of the initial drop in blood pressure or heart rate (hypotension) immediately following CHA administration (Sprague-Dawley rats [2]; 8-SPT alone (pretreatment), dose not stated): cannot prevent; also recorded: not sufficient
increase of blood pressure (Sprague-Dawley rats [2]; 8-SPT alone, after metabolic suppression is stabilized): sufficient

CN1C2CCC1CC(OC(=O)C(CO)c1ccccc1)C2 (centres unmarked) [Atropine, atropine]
prevention of CHA induced hypotension (Sprague-Dawley rats [2]; rat, in vivo): not sufficient; also recorded: does not prevent

OC[C@H]1O[C@@H](n2cnc3c(NC4CCCCC4)ncnc32)[C@H](O)[C@@H]1O [CHA, N6-Cyclohexyladenosine]
blood pressure effect of the agonist alone (Sprague-Dawley rats [2]; 1 mg/kg at time point zero, n=4-5): hypotension

CN(C)CCOC(c1ccccc1)c1ccccc1 [diphenhydramine]
prevention of hypotension (Sprague-Dawley rats [2]; diphenhydramine 4 mg/kg alone 30 min before CHA 1 mg/kg (D30C), n=3-5): not sufficient

CC(C)NCC(O)COc1cccc2ccccc12 (centres unmarked) [propranolol]
prevention of hypotension (Sprague-Dawley rats [2]; propranolol 4 mg/kg alone 15 min before CHA 1 mg/kg (P15C), n=3-5): not sufficient
